Like-named read-outs stand apart in the source and are kept apart here.
Key:
[1] = test system: SARS-CoV-2 replicon; assay: microbe, parasite or virus in culture; assay type: cell-based; conditions: for IC50: BHK-21 cells, read-out: IC50, SARS-CoV-2 replicon luciferase activity
[2] = CCK8 cell viability assay in Huh7 cells; assay type: cell-based, human
Method: (§1) Cell viabilities were analyzed using cell counting kit 8 (CCK8) (catalog no. HY-K0301; MCE) according to the manufacturer’s instructions. Ten microliters of the CCK8 reagent was added to each well of a 96-well plate. After incubation at 37°C for 1 h, optical density (OD) values were measured at 450 nm using a BioTek instrument. The CC50 was calculated by nonlinear regression analysis.

[3] = test system: SARS-CoV-2 replicon; assay: microbe, parasite or virus in culture; assay type: cell-based; conditions: human Huh7 cells, read-out: IC50, SARS-CoV-2 replicon luciferase activity
[4] = CCK8 cell viability assay in BHK-21 cells; assay type: cell-based, hamster
Method: as §1

[5] = molecular target: T1, SARS-CoV-2 3CL^pro (Severe acute respiratory syndrome coronavirus 2, UniProt P0DTD1); assay type: biochemical; conditions: 37°C, 5 min incubation
T1 construct: One microliter of SARS-CoV-2 3CL^pro reagent; purchased Beyotime P0312S

[6] = test system: SARS-CoV-2 pseudovirus; assay type: cell-based; conditions: pretreated 1 h, % of DMSO
[7] = test system: wild-type SARS-CoV-2; assay: Wild-type SARS-CoV-2 infection of A549-ACE2 cells, qRT-PCR of supernatant viral RNA; assay type: cell-based; conditions: 10 μM inhibitor, MOI 0.8, 24 h p.i.
[8] = test system: wild-type SARS-CoV-2; assay type: cell-based; conditions: A549-ACE2; pretreated 1 h; MOI 0.8; 24 h p.i.; DMSO 20%
[9] = CCK8 cell viability assay in A549-ACE2 cells; assay type: cell-based, human; conditions: human
Method: as §1

[10] = test system: BHK-21 cells; assay: CCK8 cell viability assay in BHK-21 cells; assay type: cell-based, hamster; conditions: 24 h
Method: as §1

[11] = test system: Huh7 cells; assay: CCK8 cell viability assay in Huh7 cells; assay type: cell-based, human; conditions: human Huh7 cells; 24 h
Method: as §1

[12] = test system: GFP- or Renilla luciferase-expressing plasmids; assay type: cell-based, hamster; conditions: BHK-21, 24 h posttransfection; for GFP levels vs DMSO-treated cells: Western blot
[13] = test system: A549-ACE2 cells; assay: CCK8 cell viability assay in A549-ACE2 cells; assay type: cell-based, human
Method: as §1

[14] = test system: Zika virus (ZIKV) replicon; assay: ZIKV replicon luciferase assay in BHK-21 cells; assay type: cell-based; conditions: both 6 and 24 h posttransfection
Method: FIG 4 PKC inhibitors play an antiviral role during the early stage of SARS-CoV-2 replication. (A to E) Effect of PKC inhibitors on protein translation. BHK-21 cells were pretreated with DMSO or the indicated inhibitors for 1 h, followed by transfection with SARS-CoV-2 replicon RNA, GFP- or Renilla luciferase-expressing plasmids, or ZIKV replicon RNA. Luciferase assays or Western blot assays were performed at the indicated hours after transfection. MW, molecular weight; RLU, relative luciferase units. (F) Effect of PKC inhibitors on 3CL^pro activity. The protein activities were determined using a 2019 nCoV M^pro/3CL^pro inhibitor screening kit. SARS-CoV-2 3CL^pro, the substrate, and the inhibitors were incubated at 37°C for 5 min, and […] were measured at 490 nm using a multimode plate reader. […] P values were calculated by ANOVA with Dunnett’s multiple-comparison test or unpaired, two-tailed Student’s t tests (*, P < 0.05; **, P < 0.01; ***, P < 0.001; ****, P < 0.0001; NS, not significant).
To test whether these inhibitors specifically block viral protein translation, we compared the expression levels of ectopically expressed green fluorescent protein (GFP) or Renilla luciferase in the absence and presence of the PKC inhibitor. At 24 h posttransfection, the GFP protein levels or relative Renilla luciferase activities were determined by a Western blot or luciferase assay. […]

[15] = Severe acute respiratory syndrome coronavirus 2, pretreated 1 h, […]
[16] = human Huh7 cells, 24 h, read-out: CC50 (CCK8 cell viability)
[17] = Severe acute respiratory syndrome coronavirus 2, Huh-7, 24 h
[18] = BHK-21, pretreated 1 h, […], vs DMSO
[19] = BHK-21 cells, read-out: CC50 (CCK8 cell viability)

CC(=O)c1c(O)c(C)c(O)c(Cc2c(O)c3c(c(C(=O)/C=C/c4ccccc4)c2O)OC(C)(C)C=C3)c1O [rottlerin]
IC50 [1, 15]: 0.479 µM
CC50 at 24 h [2, 16]: 4.46 µM
IC50 [3, 17]: 0.33 µM
CC50 at 24 h ([4]; hamster; BHK-21 cells; 24 h; read-out: CC50 (CCK8 cell viability)): 1.43 µM

O=c1c2ccccc2[se]n1-c1ccccc1 [ebselen]
replicon luciferase activity at 6 h (protein translation / polyprotein cleavage) [1, 18]: reduced
SARS-CoV-2 3CLpro protease activity [5]: dramatically reduced

Cn1cc(C2=C(c3cn(C4CCN(Cc5ccccn5)CC4)c4ccccc34)C(=O)NC2=O)c2ccccc21 [enzastaurin]
relative luciferase activity lower than that in DMSO-treated cells [1]: ~92%
replicon luciferase activities at all tested time points vs DMSO [1]: constantly lower
IC50 [1, 15]: 0.929 µM
CC50 at 24 h ([2]; human): 86.4 µM
luciferase activity of pseudovirus relative to DMSO-treated cells (entry) [6]: ~42%
viral RNA level in supernatant, fold lower than DMSO [7]: ~3 fold
percentage of N-positive cells [8]: 12%
CC50 [9]: 80 µM
IC50 [3, 17]: 0.93 µM
CC50 at 24 h ([4]; hamster, CC50 (CCK8 cell viability)): > 160 µM
CC50 ([10]; hamster): 160 µM

CCC(CC)COC(=O)[C@H](C)N[P@](=O)(OC[C@H]1O[C@@](C#N)(c2ccc3c(N)ncnn23)[C@H](O)[C@@H]1O)Oc1ccccc1 [remdesivir]
replicon luciferase activity at 6 h (protein translation / polyprotein cleavage) [1, 18]: did not alter
replicon luciferase activity at 24 h (RNA synthesis) [1, 18]: significantly reduced

CN1CCN(c2nc(C3=C(c4c[nH]c5ccccc45)C(=O)NC3=O)c3ccccc3n2)CC1 [sotrastaurin]
relative luciferase activity lower than that in DMSO-treated cells [1]: ~89%
replicon luciferase activities at all tested time points vs DMSO [1]: constantly lower
IC50 [1, 15]: 2.67 µM
CC50 at 24 h [2, 16]: 50.8 µM
luciferase activity of pseudovirus relative to DMSO-treated cells (entry) [6]: ~55%
IC50 [3, 17]: 1.9 µM
CC50 at 24 h ([4]; hamster, BHK-21 cells; 24 h; read-out: CC50 (CCK8 cell viability)): 82.2 µM

CN(C)CCCn1cc(C2=C(c3c[nH]c4ccccc34)C(=O)NC2=O)c2ccccc21 [bisindolylmaleimide I]
relative luciferase activity lower than that in DMSO-treated cells [1]: ~96%
replicon luciferase activities at all tested time points vs DMSO [1]: constantly lower
IC50 ([1]; pretreated 1 h, […]): 0.386 µM
CC50 [11]: 30 µM
luciferase activity of pseudovirus relative to DMSO-treated cells (entry) [6]: ~24%
viral RNA level in supernatant, fold lower than DMSO [7]: ~16 fold
percentage of N-positive cells [8]: 3%
Renilla luciferase activities vs DMSO-treated cells [12]: comparable
GFP levels vs DMSO-treated cells [12]: comparable
CC50 [13]: 50.9 µM
replication levels of the ZIKV replicon [14]: barely affected
IC50 [3]: 0.413 µM
CC50 [10, 19]: 15.9 µM

COc1ccc2c(c1)c(C1=C(c3c[nH]c4ccccc34)C(=O)NC1=O)cn2CCCN(C)C [Go 6983]
relative luciferase activity lower than that in DMSO-treated cells [1]: about 99%
replicon luciferase activities at all tested time points vs DMSO [1]: constantly lower
IC50 ([1]; pretreated 1 h, […]): 0.087 µM
CC50 [11]: 24.9 µM
luciferase activity of pseudovirus relative to DMSO-treated cells (entry) [6]: about 35%
viral RNA level in supernatant, fold lower than DMSO [7]: about 12 fold
percentage of N-positive cells [8]: 12%
Renilla luciferase activities vs DMSO-treated cells [12]: comparable
GFP levels vs DMSO-treated cells [12]: comparable
CC50 [13]: 50 µM
replication levels of the ZIKV replicon [14]: barely affected
IC50 [3]: 0.361 µM
CC50 [10, 19]: 16.9 µM

Reference: publication PMC9603170, “Protein Kinase C Inhibitors Reduce SARS-CoV-2 Replication in Cultured Cells” (Microbiology Spectrum, 2022)
